Patent publication US20080318931A1, “Treatment of Disorders and Diseases of the Colon” (priority 2004, published 2008)
“Also recorded” adds a separate entry of the source.

Tests used:
Cyclooxygenase-2 (Cox-2) = assay: Cox-2 expression in ConA stimulated mouse splenocytes, Western blot; format: cell-based; settings: 5 μM, normalized to actin
Protocol: Determination was performed using Western blot analysis and quantitative dencitometry of blot.
For each sample 2×10^7 cells were used. Cells were lysed, and equal amounts of protein was fractionated on polyacrylamide gel and then transferred to PVDF membrane. The amount of the protein was detected by immuno-blotting with […] anti-Cox-2 anti body (Murine anti COX2 Polyclonal Cat. 160126, Ann Arbor, Mich., USA. 2nd antibody conjugated to horseradish peroxidase was used and visualized with chemiluminescent Kit (Pierce, Rockford, Ill., USA) on film. Quantification of blot was performed using a densitometry apparatus (VersaDoc™ imaging system, BioRad, USA) and levels were normalized to actin.

Stat3 = Stat3 expression in human PHA activated lymphocytes, Western blot; format: cell-based; settings: 5 μM, PHA 15 μM
Protocol: Total protein lysates from human lymphocyte culture were prepared by agitation with lysis buffer (20 mM Tris pH 7.5, 150 mM NaCl, 1 mM EDTA, 1% Nonidet P-40, 0.5% sodium deoxycholate, and 2 mM Na2VO4) for 1 h at 4° C. The proteins were cleared by centrifugation at 14,000×g for 20 min at 4° C. Protein concentration was determined using BCA kit (Pierce, Ill., USA). For Western blot analysis, 30 μg-protein from each sample were loaded in 7.5% SDS-PAGE. Electroblotted proteins were detected using specific anti COX-2 polyclonal antibody (Cayman chemical company, Michigan, USA) or an ti-Stat3 monoclonal antibody (Transduction Laboratories Lexington UK). Bound antibodies were visualized using chemiluminescence reaction.

human PBMC = assay: Viability of LPS-exposed human PBMC, alamar blue; format: cell-based; settings: LPS 2 ug/well, 2.5-30 μM, 48 hours, both subjects
Protocol: Human PBMC were isolated from whole blood of 2 healthy volunteers (A and B subjects). Cells (2×10^6/ml) were exposed to LPS (2 ug/well) and treated with either the vehicle, or with paroxetine, sertraline, clomipramine and trifluoperazine (2.5-30 μM).

[1] = tested on: ConA-induced mouse splenocytes; assay: Con-A-induced mouse splenocyte proliferation/viability, alamar blue; format: cell-based; settings: 48 hr
Protocol: (§1) Mouse splenocytes were isolated from C57b1 healthy female mice. Cells (10,000/well) were tested under basal and ConA stimulation. Cells were treated with vehicle, dexamethasone or antidepressants (2.5-10 μM). Viability was assessed 48 hr later using alamar blue staining. (Reagents were manufactured by Wildflower, Santa Fe, N. Mex., USA.) Alamar blue assay was performed as in Nociari et al (1998).
Effect of paroxetine, (SSRI) and clomipramine (TCA) as compared to dexamethasone on Con-A-induced splenocyte proliferation (alamar blue method), and splenocyte-induced secretion of TH1 cytokines TNF-α, IL2 and INFγ, 1×10^6 cells/well, was measured 48 hours after exposure to drugs (2.5-10 μM).
In particular, mouse splenocytes were isolated from C57BL healthy female mice. Cells (10,000/well) were then exposed to Con-A (5 μM) and treated with either the vehicle, with dexamethasone or with a drug (2.5-10 μM).
Cell viability was assessed 48 hr later using Alamar blue staining. The results are presented in FIG. 4, where each point is the graph represents the mean of 4 determinations. […]. The IC50 determined for the antidepressant drugs was in the range of 2.5-5.5 μM.
Cells were treated with vehicle, or the antidepressants (2.5-20 μM). Viability was assessed 48 hours later using alamar blue staining. (Each point is the mean+/−SEM of 4 determinations).

[2] = tested on: Human Colon carcinoma (HT29) cell-line; assay: Viability of human colon carcinoma HT29 cells, alamar blue and neutral red; format: cell-based; settings: 10-30 μM, FIG. 14
Protocol: Human Colon carcinoma (HT29) cell-line (ATCC USA) was maintained in RPMI medium supplemented with 10% fetal calf serum and penicillin (100 u/ml), streptomycin (100 mcg/ml), nystatin (12.5 u/ml), L-glutamine (2 mM). Confluent cultures were washed with phosphate-buffered saline (PBS), detached with trypsine (0.25%), centrifuged, and subcultured in 96-well microtiter test plates. Cells were exposed to vehicle or to psychotropic drugs. Cell viability was measured 24 hours later using the alamar blue and neutral red methods. Results were expressed as % of controls (vehicle treated cells). Each sample is the Mean+/−[…] of 4 determinations.

[3] = tested on: splenocytes derived from treated mice; assay: ConA/basal proliferation ratio of splenocytes from mice treated in vivo for 7 days; set-up: species or system mouse; settings: paroxetine 7.5, clomipramine 15 mg/kg x3/week i.p., Con A 5 μM in vitro
Protocol: Paroxetine or clomipramine were administered at 7.5 and 15 mg/kg x3/week i.p, respectively. Splenocytes were derived from treated animals.
Each group represents the mean of a pool of 5 animals.

[4] = tested on: mouse splenocytes (basal); assay: Basal mouse splenocyte viability, alamar blue; format: cell-based; settings: 2.5-10 μM, 48 hr
Protocol: as §1

[5] = tested on: DSS-induced acute colitis; assay: Rat model of DSS-induced acute colitis; format: in vivo; settings: for number of days with significant DAI difference vs control: 9 days in water-treated DSS group
Protocol: Potential anti-IBD effect of two different doses of paroxetine, namely 0.2% and 0.4% was assessed in the rat model of DSS-induced acute colitis (DSS—dextran sulfate sodium). The use of DSS is a well-defined method for the induction of colitis' in animals. DSS can be controlled more precisely regarding molecular weight distribution, grade of sulfate incorporation and impurities than other agents typically used to achieve the same clinical end-point. This reagent model is suitable for screening of new drugs as it uses small animals, the oral administration of the agent is convenient to use in large groups of animals and the induced colitis responds to treatment with conventional drugs (see for example Axelsson et al, 1993).
Paroxetine (oral suspension, protected from light at or below 25° C.) was administered at two respective doses of 7.5 and 15 mg/kg by one daily repeated oral gavage (PO) for 16 days. Colitis induction commenced two days following initiation of treatment by continuous exposure ad libitum of the test animals to 3% DSS (36-50 kDa) in their drinking water (chlorinated and acidified, pH range of 5.1-5.9, freshly prepared on even test days). […] Two additional paroxetine-treated non-DSS induced groups were likewise treated with the same selected does to detect any unforeseen paroxetine related effects. Test groups comprised either n=8 (DSS induced) or n=4 (non-DSS induced) male Sprague Dawley (SD) rats (healthy, young […] weeks of age, total of 36 animals).
Evaluation of anti-IBD effect was based on the following […] parameters: a. Daily clinical scoring of the characteristic experimental colitis signs, consisting of body weight loss, altered fecal consistency and hematochezia and expressed as Disease Activity Index (DAI); b. Body weight determination; c. Colon length; d. Macroscopic colon lesions scores noted at necropsy; and e. microscopic colon lesions score.
The histological scoring system for the 3% DSS-induced colonic inflammation is shown below in Tables 1 and 2:
Final data evaluation was carried out by statistical analysis of differences between mean group values for each of the above listed parameters in the DSS-induced groups vs. respective mean values in the water-treated non-DSS induced group.

Fc1ccc([C@@H]2CCNC[C@H]2COc2ccc3c(c2)OCO3)cc1 [paroxetine]
reduction of Cox-2 expression (Cyclooxygenase-2 (Cox-2)): 22.2% | PHA-induced increase in Stat3 expression (Stat3): antagonized | order of potency, decrease in cell viability (human PBMC): sertraline>paroxetine>trifluoperazine>/=clomipramine | ConA (mitogen)-induced splenocyte proliferation ([1]; 2.5-10 μM, alamar blue): dose dependent decrease; also recorded: dose-dependent decrease | cell viability compared to dexamethasone ([1]; Con-A 5 μM, drug 2.5-10 μM): decreased cell viability to the same extent as compared to dexamethasone | inhibition of cell viability [2]: 64% | capacity to respond to Con-A (ratio ConA/basal) vs vehicle treated mice [3]: not | basal splenocyte proliferation [4]: dose dependent decrease | mean body weight vs respective control ([5]; both doses (7.5 and 15 mg/kg PO), DSS-induced): did not reach statistical significance | mean colon length vs water-treated non-DSS induced group ([5]; both doses, p<0.05): significantly shorter | medians of histopathological scores (lateral and in-depth extension) ([5]; both doses, differences not statistically significant): lower than for the control group | day of peak DAI score ([5]; both paroxetine-treated DSS-induced groups): 10 days | mean macroscopic colon score vs control ([5]; high dose): did not significantly differ | number of days with significant DAI difference vs control ([5]; high paroxetine dose): 6 days | mortality ([5]; high-dose (15 mg/kg PO) DSS-induced group): No mortality | mean macroscopic colon score vs control ([5]; low dose, p<0.01): significantly higher | number of days with significant DAI difference vs control ([5]; low paroxetine dose): 5 days | overall anti-IBD effect ([5]; oral suspension, 7.5 and 15 mg/kg): trend of anti-IBD effect with a dose-response | mortality ([5]; the dose paroxetine-treated DSS-induced group, n=8, PO daily 16 days): one
